Measured values taken from paper PMC8253220, “Molecular design, synthesis and in vitro biological evaluation of thienopyrimidine–hydroxamic acids as chimeric kinase HDAC inhibitors: a challenging approach to combat cancer” (Journal of Enzyme Inhibition and Medicinal Chemistry, 2021).
Several values for one entry are separate records, joined by “and”; a condition that tells them apart may be missing. Equal values may be shown once.

Key:
Assay in all cases: NCI one-dose screen
Format in all cases: cell-based, human
[1] = system: HCT-116; settings: Colon HCT-116, 10 µM single dose
Method: (§1) All of the synthesised structures were selected and submitted to NCI based on computer modelling techniques and the degree of diversity of structures for the evaluation of their antiproliferative activity. The 20 synthesised compounds were selected with their respective NCI codes [NCS D-820157- NCS D-820176] for the inhibition percent assay at an initial single dose of 10 μM on the full NCI 60 cell panel, where the mean graph of the percent growth for all compounds on the full NCI cell panel is evaluated, compared to the untreated control cells (Supplementary Material). In vitro cell line inhibition % of all synthesised compounds is represented in (Table 1 of Supplementary Material).
(§2) All of the synthesised compounds (20) were submitted to NCI and selected for in vitro anticancer assay against a panel of 60 cancer cell lines. The methodology of assay and calculations is as reported.

[2] = system: 786-0; settings: Renal 786-0, 10 µM single dose
Method: as §1, §2

[3] = system: SF-268; settings: CNS SF-268, 10 µM single dose
Method: as §1, §2

[4] = system: SK-MEL-28; settings: Melanoma SK-MEL-28, 10 µM single dose
Method: as §1, §2

[5] = system: MDA-MB-231/ATCC; settings: Breast MDA-MB-231/ATCC, 10 µM single dose
Method: as §1, §2

[6] = system: HOP-92; settings: NSCLC HOP-92, 10 µM single dose
Method: as §1, §2

[7] = system: SN12C; settings: Renal SN12C, 10 µM single dose
Method: as §1, §2

[8] = system: MALME-3M; settings: Melanoma MALME-3M, 10 µM single dose
Method: as §1, §2

[9] = system: T-47D; settings: Breast T-47D, 10 µM single dose
Method: as §1, §2

[10] = system: HCC-2998; settings: Colon HCC-2998, 10 µM single dose
Method: as §1, §2

[11] = system: HL-60(TB); settings: Leukemia HL-60(TB), 10 µM single dose
Method: as §1, §2

[12] = system: NCI-H322M; settings: NSCLC NCI-H322M, 10 µM single dose
Method: as §1, §2

[13] = system: MCF7; settings: Breast MCF7, 10 µM single dose
Method: as §1, §2

[14] = system: SNB-19; settings: CNS SNB-19, 10 µM single dose
Method: as §1, §2

[15] = system: SF-539; settings: CNS SF-539, 10 µM single dose
Method: as §1, §2

[16] = system: KM12; settings: Colon KM12, 10 µM single dose
Method: as §1, §2

[17] = system: OVCAR-5; settings: Ovarian OVCAR-5, 10 µM single dose
Method: as §1, §2

[18] = system: RPMI-8226; settings: Leukemia RPMI-8226, 10 µM single dose
Method: as §1, §2

[19] = system: UACC-257; settings: Melanoma UACC-257, 10 µM single dose
Method: as §1, §2

[20] = system: CAKI-1; settings: Renal CAKI-1, 10 µM single dose
Method: as §1, §2

[21] = system: NCI-H23; settings: NSCLC NCI-H23, 10 µM single dose
Method: as §1, §2

[22] = system: BT-549; settings: Breast BT-549, 10 µM single dose
Method: as §1, §2

[23] = system: NCI-H460; settings: NSCLC NCI-H460, 10 µM single dose
Method: as §1, §2

[24] = system: TK-10; settings: Renal TK-10, 10 µM single dose
Method: as §1, §2

[25] = system: COLO 205; settings: Colon COLO 205, 10 µM single dose
Method: as §1, §2

[26] = system: NCI-H522; settings: NSCLC NCI-H522, 10 µM single dose
Method: as §1, §2

[27] = system: SF-295; settings: CNS SF-295, 10 µM single dose
Method: as §1, §2

[28] = system: LOX IMVI; settings: Melanoma LOX IMVI, 10 µM single dose
Method: as §1, §2

[29] = system: SR; settings: Leukemia SR, 10 µM single dose
Method: as §1, §2

[30] = system: U251; settings: CNS U251, 10 µM single dose
Method: as §1, §2

[31] = system: SK-OV-3; settings: Ovarian SK-OV-3, 10 µM single dose
Method: as §1, §2

[32] = system: OVCAR-3; settings: Ovarian OVCAR-3, 10 µM single dose
Method: as §1, §2

[33] = system: MDA-MB-435; settings: Melanoma MDA-MB-435, 10 µM single dose
Method: as §1, §2

[34] = system: ACHN; settings: Renal ACHN, 10 µM single dose
Method: as §1, §2

[35] = system: OVCAR-8; settings: Ovarian OVCAR-8, 10 µM single dose
Method: as §1, §2

[36] = system: PC-3; settings: Prostate PC-3, 10 µM single dose
Method: as §1, §2

[37] = system: K-562; settings: Leukemia K-562, 10 µM single dose
Method: as §1, §2

| Structure (SMILES) | Growth Percent [1] | Growth Percent [2] | Growth Percent [3] | Growth Percent [4] | Growth Percent [5] | Growth Percent [6] | Growth Percent [7] | Growth Percent [8] | Growth Percent [9] | Growth Percent [10] | Growth Percent [11] | Growth Percent [12] | Growth Percent [13] | Growth Percent [14] | Growth Percent [15] | Growth Percent [16] | Growth Percent [17] | Growth Percent [18] | Growth Percent [19] | Growth Percent [20] | other results |
| --- | --- | --- | --- | --- | --- | --- | --- | --- | --- | --- | --- | --- | --- | --- | --- | --- | --- | --- | --- | --- | --- |
| Cc1c(C(=O)NCCC(=O)NO)sc2ncnc(Nc3ccc(NC(=O)Nc4cccc(C(F)(F)F)c4)cc3)c12 [Compound 11c, 1–(4-(6-((3-(hydroxyamino)-3-oxopropyl)carbamoyl)-5-methylthieno[2,3-d]pyrimidin-4-ylamino)phenyl)-3–(3-(trifluoromethyl)phenyl)urea] | 107.9% and 107.91% | 115.6% and 115.64% | 93.3% and 93.37% | 109.7% and 109.72% | 105.2% and 105.25% | 115.4% | 100.0% and 100.06% | 112.1% and 112.11% | 101.4% and 101.45% | 111.5% and 111.56% | 105.0% and 105.04% | 103.7% and 103.74% | 89.2% and 89.23% | 93.6% and 93.62% | 78.9% and 78.96% | 100.1% and 100.15% | 104.4% and 104.48% | 102.2% and 102.26% | 108.3% and 108.33% | 99.3% and 99.31% | Growth Percent [21]: 100.0% and 100.01%; Growth Percent [22]: 137.1% and 137.18%; Growth Percent [23]: 99.4% and 99.41%; Growth Percent [24]: 140.4% and 140.42%; Growth Percent [25]: 112.9%; Growth Percent [26]: 94.3% and 94.36%; Growth Percent [27]: 91.8% and 91.82%; Growth Percent [28]: 94.5% and 94.53%; Growth Percent [29]: 101.0% and 101.07%; Growth Percent [30]: 80.2% and 80.22%; Growth Percent [31]: 115.3% and 115.32%; Growth Percent [32]: 111.6%; Growth Percent [33]: 103.1% and 103.18%; Growth Percent [34]: 101.7% and 101.74%; Growth Percent [35]: 102.2% and 102.23%; Growth Percent [36]: 100.2% and 100.24%; Growth Percent [37]: 103.6% and 103.67% |
| Cc1c(C(=O)NCCCC(=O)NO)sc2ncnc(Nc3ccc(F)c(Cl)c3)c12 [Compound 20d, 4–(3-chloro-4-fluorophenylamino)-N-(4-(hydroxyamino)-4-oxobutyl)-5-methylthieno[2,3-d]pyrimidine-6-carboxamide] | 105.9% and 105.97% | 104.6% and 104.67% | 95.2% | 111.4% and 111.42% | 99.7% and 99.77% | 118.7% and 118.75% | 103.5% and 103.55% | 115.8% and 115.88% | 112.6% and 112.64% | 104.1% and 104.19% | 104.6% and 104.62% | 105.2% and 105.25% | 91.4% and 91.48% | 98.1% and 98.16% | 100.8% and 100.82% | 101.5% and 101.54% | 100.1% and 100.15% | 108.7% and 108.75% | 103% | 92.1% and 92.19% | Growth Percent [21]: 98.9% and 98.94%; Growth Percent [22]: 117.9% and 117.96%; Growth Percent [23]: 101.8% and 101.82%; Growth Percent [24]: 124.1% and 124.14%; Growth Percent [25]: 119.1% and 119.14%; Growth Percent [26]: 92.6% and 92.67%; Growth Percent [27]: 101.9%; Growth Percent [28]: 96.3%; Growth Percent [29]: 110.0% and 110.02%; Growth Percent [30]: 99.1% and 99.18%; Growth Percent [31]: 122.6% and 122.66%; Growth Percent [32]: 108.4% and 108.42%; Growth Percent [33]: 101.6% and 101.67%; Growth Percent [34]: 102.2% and 102.28%; Growth Percent [35]: 99.6% and 99.61%; Growth Percent [36]: 105.3% and 105.36%; Growth Percent [37]: 117.4% and 117.47% |
| COc1cccc(NC(=O)Nc2ccc(Nc3ncnc4sc(C(=O)NCCCC(=O)NO)c(C)c34)cc2)c1 [Compound 12b, 1–(4-(6-((4-(hydroxyamino)-4-oxobutyl)carbamoyl)-5-methylthieno[2,3-d]pyrimidin-4-ylamino)phenyl)-3–(3-methoxyphenyl)urea] | 99.2% and 99.29% | 105.9% | 95.1% | 104.0% and 104.05% | 97.0% and 97.05% | 112.3% and 112.35% | 104.5% and 104.52% | 95.2% and 95.25% | 97.6% and 97.69% | 108.5% and 108.55% | 102.4% | 95.9% and 95.94% | 91.5% | 97.9% | 98.2% and 98.26% | 101.3% and 101.38% | 107.5% and 107.59% | 106.6% and 106.68% | 104.3% and 104.35% | 97.1% and 97.14% | Growth Percent [21]: 97.5% and 97.53%; Growth Percent [22]: 105.5% and 105.57%; Growth Percent [23]: 99.1%; Growth Percent [24]: 107.7% and 107.72%; Growth Percent [25]: 111.3% and 111.31%; Growth Percent [26]: 81.7% and 81.76%; Growth Percent [27]: 102.5% and 102.51%; Growth Percent [28]: 90.7% and 90.77%; Growth Percent [29]: 108.2% and 108.25%; Growth Percent [30]: 92.8% and 92.88%; Growth Percent [31]: 114.7% and 114.77%; Growth Percent [32]: 99.3% and 99.38%; Growth Percent [33]: 100.9%; Growth Percent [34]: 98.6% and 98.68%; Growth Percent [35]: 103.6% and 103.67%; Growth Percent [36]: 98.6% and 98.65%; Growth Percent [37]: 101.6% and 101.69% |
